Results on six molecules are retold here after article PMC3333808 (Cell Reports, 2012).

Data set [1] deals with T1, SecYEG (Escherichia coli, UniProt P0AG96+P0AG99+P0AGA2).
T1 sequence (P0AGA2 1-443): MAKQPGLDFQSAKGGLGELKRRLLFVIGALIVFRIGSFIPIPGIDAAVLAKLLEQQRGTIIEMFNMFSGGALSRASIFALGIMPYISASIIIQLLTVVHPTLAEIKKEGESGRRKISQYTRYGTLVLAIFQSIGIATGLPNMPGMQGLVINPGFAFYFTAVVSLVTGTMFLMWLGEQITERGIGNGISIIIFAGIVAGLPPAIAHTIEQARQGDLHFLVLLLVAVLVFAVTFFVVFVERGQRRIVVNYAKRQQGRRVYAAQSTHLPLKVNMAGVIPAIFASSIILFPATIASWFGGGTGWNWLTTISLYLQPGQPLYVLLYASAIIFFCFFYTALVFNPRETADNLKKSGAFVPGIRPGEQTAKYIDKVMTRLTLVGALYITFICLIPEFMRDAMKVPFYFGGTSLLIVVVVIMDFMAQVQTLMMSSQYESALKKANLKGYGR
T1 sequence (P0AG96 1-127 partner): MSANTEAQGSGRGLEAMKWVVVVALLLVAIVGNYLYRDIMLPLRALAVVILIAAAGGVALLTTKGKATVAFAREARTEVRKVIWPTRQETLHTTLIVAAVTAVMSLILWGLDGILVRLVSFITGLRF
T1 sequence (P0AG99 1-110 partner): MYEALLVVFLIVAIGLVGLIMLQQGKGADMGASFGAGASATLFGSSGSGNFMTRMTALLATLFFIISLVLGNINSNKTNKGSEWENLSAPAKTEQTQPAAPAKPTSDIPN
It is filed as binding. The following applies: 1.65 μM SecYEG, 3.2 mg/ml E. coli polar lipids, 10 μM peptide; reisolated by centrifugation; SDS-PAGE, silver staining; Figure 1D.

The test system of data set [2] is SecYEG. The following applies: dimer vs monomer; ref Deville et al., 2011; cited from earlier work.
For data set [3], the system named is SecYEG. The following applies: membranes containing SecYEG; ref Simon and Blobel, 1992; cited from earlier work.
The subject of data set [4] is SecA. The following applies: synthetic LamB signal peptide; ref Gelis et al., 2007; cited from earlier work.
Data set [5] deals with T1, SecYEG. The data set can be described thus: Translocation of OmpA into vesicles coreconstituted with SecYEG and peptide. The following applies: vesicles reisolated from excess unbound peptide; western blot; n = 8; Figure 1E. The format is biochemical. In general terms: In western blotting, separated proteins are transferred to a membrane and probed.
For data set [6], the system named is trypsin. The data set can be described thus: Resistance of peptide in SecYEG 2D crystals to trypsin. It is filed as in vitro ADME. The following applies: 1:100 (w/w) trypsin, 20 min, room temperature; Coomassie-stained SDS-PAGE; Figure 1F.
Data set [7] has as its target T1, SecYEG. The data set can be described thus: SecA/ATP-driven translocation of preprotein proOmpA into SecYEG proteoliposomes. The following applies: proteoliposomes containing SecYEG; 0.7 μM proOmpA; 25°C, pH 7.5; proteinase K protection, western blot; Figures 1A and 1B. It is filed as biochemical.
Data set [8] concerns the target T2, SecYEG complex (E. coli, UniProt P0AGA2 1-443; P0AG96 1-127; P0AG99 1-110).
T2 sequence (looked up) 1: T1 sequence (P0AGA2 1-443)
T2 sequence (looked up) 2: T1 sequence (P0AG96 1-127 partner)
T2 sequence (looked up) 3: T1 sequence (P0AG99 1-110 partner)
The data set can be described thus: cryo-EM structure.

For data set [9], the target named is T2, SecYEG complex. In words: co-sedimentation.

Regarding “MMITLRKLP-(ΔLAVA)-VAAGVMSAQAYA-VDFHGYARSGIGWTG [SSΔ4-β1]”, the “peptide retained following coreconstitution with SecYEG” value in [1] was “but not SSΔ4-β1, were retained following coreconstitution with SecYEG”.
Regarding “SecA: ATPase that associates peripherally with the protein-channel complex SecYEG”, in [2], the “affinity of SecA for the SecYEG dimer over the monomer” value was 10 fold.
As to MMITLRKLPLAVAVAAGVMSAQAYA [SS], the channel opening result in data set [3] is on record as “opens channels in membranes containing SecYEG”. Moreover, the “peptide retained following coreconstitution with SecYEG” value in data set [1] is reported as “retained following coreconstitution with SecYEG”. In [4], the “effect of association with SecA on protein translocation” value is “competitive inhibition of protein translocation”. The “translocation of OmpA after coreconstitution of SecYEG with peptide” value in [5] is “permitted the translocation of OmpA”.
Regarding “MMITLRKLPLAVAVAAGVMSAQAYA-VDFHGYARSGIGWTG [SS-β1]”, the “peptide retained following coreconstitution with SecYEG” value in data set [1] is on record as “retained following coreconstitution with SecYEG”. Also, in data set [6], the “resistance to proteolysis by trypsin in SecYEG 2D crystals” value is on record as “resistance to proteolysis”. Besides, the “translocation of OmpA after coreconstitution of SecYEG with peptide” value in data set [5] was “permitted the translocation of OmpA”. Besides, in [7], the “inhibition of SecA/ATP-driven translocation of proOmpA” value was “quantitatively inhibits”.
On to MMITLRKLPLAVAVAAGVMSAQAYAVDFHGYARSGIGWTG [LamB signal sequence plus the first β strand peptide (SS-β1)], for which the “stoichiometry N” value in [8] was 1 substrate per SecYEG dimer.
With MMITLRKLPLAVAVAAGVMSAQAYA [LamB signal sequence peptide (SS)], the binding result in data set [9] is “binds”.
